A short description of the assay: Cytotoxicity against human ovarian cancer cells. In kind it is functional, cell-based. The following applies: Cancer cell lines.

In brackets after ≈: the same amount, converted by molar mass.

Our source for the IC50 values is ChEMBL document CHEMBL1146420, “Isolation and characterization of 1,3-dimethylisoguanine from the Bermudian sponge Amphimedon viridis” (J Nat Prod, 1997).

In general, IC50 refers to the concentration at which inhibition is half-maximal. Read a high IC50 as a need for much substance. On to `Cn1c(=N)c2nc[nH]c2n(C)c1=O`, for which the concentration for half-maximal inhibition (IC50) was determined as 2.1 mg/L (≈ 11.7 µM).
